What is called EC50 is the concentration needed to bring the measured effect to its halfway point.

Chain of human 5-HT2C receptor (P28335 33-458 I156V/N158S/I160V limits assumed): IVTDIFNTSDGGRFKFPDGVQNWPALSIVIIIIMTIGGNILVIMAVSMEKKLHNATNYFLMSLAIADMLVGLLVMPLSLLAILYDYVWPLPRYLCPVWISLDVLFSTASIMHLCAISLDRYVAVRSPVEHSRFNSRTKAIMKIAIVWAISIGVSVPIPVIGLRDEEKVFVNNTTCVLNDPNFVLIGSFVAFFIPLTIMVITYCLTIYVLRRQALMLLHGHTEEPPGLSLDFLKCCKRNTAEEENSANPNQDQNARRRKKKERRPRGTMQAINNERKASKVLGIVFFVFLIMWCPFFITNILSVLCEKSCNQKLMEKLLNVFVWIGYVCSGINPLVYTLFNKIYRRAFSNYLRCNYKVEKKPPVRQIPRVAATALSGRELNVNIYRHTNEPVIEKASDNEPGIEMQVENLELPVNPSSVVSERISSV

The assay has as its target human 5-HT2C receptor (Homo sapiens, UniProt P28335, I156V/I160V/N158S). Briefly: cell-based.
`COc1ccc(OC2CN(c3c4c(nc5ccnn35)CCNCC4)C2)c(Cl)c1` [Example 35.19] returned an EC50 of 87 nM.
`CO[C@@H]1CCN(C(=O)C2CN(c3c4c(nc5ccnn35)CCN(C)CC4)C2)C1` [Example 36.38]: it took 86 nM to reach a half-maximal effect (EC50).
Regarding `CC(C)N1CCCN(C(=O)C2CN(c3c4c(nc5ccnn35)CCN(C)CC4)C2)CC1` [Example 36.49], the EC50 came to 78 nM.
Compound `c1ccc2oc(C3CN(c4c5c(nc6ccnn46)CCNCC5)C3)nc2c1` [Example 14, 10-(3-Benzooxazol-2-yl-azetidin-1-yl)-6,7,8,9-tetrahydro-5H-1,4,7,10a-tetraaza-cyclohepta[f]indene] displayed an EC50 of 678 nM.
`Cc1cccc2[nH]c(C3CN(c4c5c(nc6ccnn46)CCNCC5)C3)nc12` [Example 34.5]: the EC50 came out at 246 nM.
With `O=C(C1CN(c2c3c(nc4ccnn24)CCNCC3)C1)N1CCOC(c2ccccc2)C1` (stereo not drawn) [Example 31.8], the midpoint of the response, the EC50, lay at 94 nM.
For `c1cc2nc3c(c(N4CCC4)n2n1)CCNCC3` [Example 7.4], the concentration for a half-maximal effect (EC50) was 5 nM.
Compound `CCCCN1CCN(C(=O)C2CN(c3c4c(nc5ccnn35)CCNCC4)C2)CC1` [Example 37.25] yielded an EC50 of 3 nM.
To `COc1ccc(OC2CN(c3c4c(nc5ccnn35)CCNCC4)C2)c(Br)c1` [Example 35.30] belongs 40 nM.
For `O=C(C1CN(c2c3c(nc4ccnn24)CCNCC3)C1)N1CCC(N2CCCC2)CC1` [Example 37.5], the EC50 was 2 nM.
`CN(Cc1cccc(Cl)c1Cl)C(=O)C1CN(c2c3c(nc4ccnn24)CCNCC3)C1` [Example 31.168] had an EC50 of 107 nM.
Consider `Cc1cnn2c(N3CC(C(=O)N4CCc5c(cccc5C(F)(F)F)C4)C3)c3c(nc12)CCNCC3` [Example 31.239], for which a half-maximal response (EC50) required 80 nM.
In the case of `O=C(C1CN(c2c3c(nc4ccnn24)CCNCC3)C1)N1CC[C@H](c2ccccc2)C1` [Example 31.224], the EC50 came to 45 nM.
`C=CCC1CN(C(=O)C2CN(c3c4c(nc5ccnn35)CCNCC4)C2)Cc2ccccc21` (stereo not drawn) [Example 31.88] came in with an EC50 of 71 nM.
`COc1ccc(OC2CN(c3c4c(nc5ccnn35)CCNCC4)C2)c(F)c1` [Example 35.34] returned a concentration giving a half-maximal response (EC50) of 65 nM.
The compound `Cc1cccc2c1CCN2C(=O)C1CN(c2c3c(nc4ccnn24)CCNCC3)C1` [Example 31.175] yielded an EC50 of 64 nM.
The compound `Cc1cnn2c(N3CC(C(=O)N(C)Cc4ccc(C#N)cc4)C3)c3c(nc12)CCNCC3` [Example 31.250] gave an EC50 of 9 nM.
As to `O=C(C1CN(c2c3c(nc4ccnn24)CCNCC3)C1)N1CCC(c2cccc(F)c2)CC1` [Example 31.211], the EC50 stood at 31 nM.
With `Cc1cccc(CN(C)C(=O)C2CN(c3c4c(nc5ccnn35)CCNCC4)C2)n1` [Example 31.208], the EC50 was 62 nM.
Then `CCc1ccc(CN(C)C(=O)C2CN(c3c4c(nc5ccnn35)CCNCC4)C2)cc1` [Example 31.170], with 64 nM.
`Clc1ccccc1OC1CCN(c2c3c(nc4ccnn24)CCNCC3)CC1` [Example 1.55]: the midpoint of the response, the EC50, lay at 2780 nM.
In turn, `O=C(C1CN(c2c3c(nc4ccnn24)CCNCC3)C1)N1CCC(OCc2ccccc2)CC1` [Example 31.199] came in with an EC50 of 48 nM.
To `c1cc2nc3c(c(N4CCOCC4)n2n1)CCNCC3` [Example 7, 10-Morpholin-4-yl-6,7,8,9-tetrahydro-5H-1,4,7,10a-tetraaza-cyclohepta[f]indene] belongs 2580 nM; to `Clc1ccccc1OC1CN(c2c3c(nc4ccnn24)CCNCC3)C1` [Example 35.3], 98 nM; to `COc1cc(Cl)ccc1OCC1CN(c2c3c(nc4ccnn24)CCNCC3)C1` [Example 15.26], 163 nM.
For `COc1ccc(OCC2CN(c3c4c(nc5ccnn35)CCNCC4)C2)c(Cl)c1` [Example 15.16], the EC50 came to 3 nM.
Compound `Cc1cnn2c(N3CC(C(=O)N4CCC5(CCOC5)CC4)C3)c3c(nc12)CCNCC3` [Example 31.240] had an EC50 of 29 nM.
On to `CN1CCc2nc3ccnn3c(N3CC(C(=O)N4CCN(C5CC5)CC4)C3)c2CC1` [Example 36.24], for which the concentration for a half-maximal effect (EC50) is 228 nM.
Then `CCn1c(C2CN(c3c4c(nc5ccnn35)CCNCC4)C2)nc2cc(F)ccc21` [Example 34.39], with 666 nM; and `O=C(NC1(c2ccccc2)CC1)C1CN(c2c3c(nc4ccnn24)CCNCC3)C1` [Example 31.92], with 921 nM; and `c1nn2c(N3CCC3)c3c(nc2c1CCC1CC1)CCNCC3` [Example 6.1], with 365 nM.
The compound `CC(C)(C)C1CCN(C(=O)C2CN(c3c4c(nc5ccnn35)CCNCC4)C2)CC1` [Example 31.121] gave a half-maximal effective concentration (EC50) of 22 nM.
To `CC(C)(C)N1CCC2(CCN(c3c4c(nc5ccnn35)CCNCC4)CC2)C1=O` [Example 1.65] belongs 4900 nM; to `Brc1cnn2c(N3CC(Oc4ccccc4)C3)c3c(nc12)CCNCC3` [Example 2.1], 7 nM; to `CC1(C)CCN(C(=O)C2CN(c3c4c(nc5ccnn35)CCNCC4)C2)C1` [Example 31.53], 8 nM.
Regarding `O=C(C1CN(c2c3c(nc4ccnn24)CCNCC3)C1)N1CCC(CCc2ccc(F)cc2)CC1` [Example 31.105], the EC50 was 111 nM.
`CC1(NC(=O)C2CN(c3c4c(nc5ccnn35)CCNCC4)C2)CCCC1` [Example 37.80] came in with a 50% effective concentration (EC50) of 124 nM.
Compound `FC1(F)CN(c2c3c(nc4ccnn24)CCNCC3)C1` [Example 1.4] showed a concentration for a half-maximal effect (EC50) of 2420 nM.
Compound `FC(F)(F)c1cccnc1OC1CN(c2c3c(nc4ccnn24)CCNCC3)C1` [Example 20.12] came in with an EC50 of 959 nM.
With `CNC1CCN(C(=O)C2CN(c3c4c(nc5ccnn35)CCNCC4)C2)CC1` [Example 37.14], the EC50 stood at 1 nM.
`CN1CCc2nc3ccnn3c(N3CC(C(=O)N4CCC5(CC5)C4)C3)c2CC1` [Example 36.37] returned an EC50 of 61 nM.
To `COCCN(C)C(=O)C1CN(c2c3c(nc4ccnn24)CCNCC3)C1` [Example 31.3] belongs 885 nM.
As for `O=C(C1CN(c2c3c(nc4ccnn24)CCNCC3)C1)N1CCc2sccc2C1` [Example 31.36], the EC50 stood at 57 nM.
The compound `Cc1cnn2c(N3CC(C(=O)N4c5ccccc5CC4C)C3)c3c(nc12)CCNCC3` (stereo not drawn) [Example 31.241] gave an EC50 of 84 nM.
To `CN(Cc1ccccn1)C(=O)C1CN(c2c3c(nc4ccnn24)CCNCC3)C1` [Example 31.29] belongs 87 nM; to `O=C(C1CN(c2c3c(nc4ccnn24)CCNCC3)C1)N1CCC(Cc2ccccc2)CC1` [Example 31.126], 47 nM.
In turn, `Fc1cccc(Cl)c1OCC1CN(c2c3c(nc4ccnn24)CCNCC3)C1` [Example 15.14] came in with a concentration giving a half-maximal response (EC50) of 2 nM.
Regarding `O=C(NC1CCCC(C(F)(F)F)C1)C1CN(c2c3c(nc4ccnn24)CCNCC3)C1` (stereo not drawn) [Example 37.59], the EC50 is 47 nM.
As to `CN1CCCN(C(=O)C2CN(c3c4c(nc5ccnn35)CCNCC4)C2)CC1` [Example 37.10], a half-maximal effect (EC50) was put at 2 nM.
Consider `COc1ccc(CCN(C)C(=O)C2CN(c3c4c(nc5ccnn35)CCNCC4)C2)cc1` [Example 31.27], for which the half-maximal effective concentration (EC50) came out at 274 nM.
Compound `Clc1cccc(OC2CN(c3c4c(nc5ccnn35)CCNCC4)C2)c1` [Example 35.50] showed a 50% effective concentration (EC50) of 208 nM.
On to `CC1(C(=O)N2CCc3c(cccc3C(F)(F)F)C2)CN(c2c3c(nc4ccnn24)CCNCC3)C1` [Example 32.3], for which the concentration for a half-maximal effect (EC50) worked out at 1960 nM.
`Cc1cnn2c(N3CC(C(=O)N(C)Cc4ccc(OC(F)F)cc4)C3)c3c(nc12)CCNCC3` [Example 31.249]: the response was half-maximal at 16 nM (EC50).
Take `CN(Cc1ccc(C(C)(C)C)cc1)C(=O)C1CN(c2c3c(nc4ccnn24)CCNCC3)C1` [Example 31.162]: the concentration for a half-maximal effect (EC50) was 187 nM.
In turn, `CC1CN(C(=O)C2CN(c3c4c(nc5ccnn35)CCNCC4)C2)CC(C)N1` (stereo not drawn) [Example 37.13] showed an EC50 of 1 nM.
`CNC1CCN(C(=O)C2CN(c3c4c(nc5ccnn35)CCNCC4)C2)C1` (stereo not drawn) [Example 37.26] registered an EC50 of 2 nM.
In turn, `CC1CNCCc2nc3ccnn3c(N3CCC3)c21` (stereo not drawn) [Example 5, 10-Azetidin-1-yl-9-methyl-6,7,8,9-tetrahydro-5H-1,4,7,10a-tetraaza-cyclohepta[f]indene] showed an EC50 of 570 nM.
For the compound `COc1ccc2c(c1)CCN2C(=O)CC1CN(c2c3c(nc4ccnn24)CCNCC3)C1` [Example 33.3], the EC50 worked out at 12 nM.
To `CC1(C)CCN(C(=O)C2CN(c3c4c(nc5c(Br)cnn35)CCNCC4)C2)C1` [Example 31.135] belongs 46 nM; to `CN(Cc1cccc(Br)c1)C(=O)C1CN(c2c3c(nc4ccnn24)CCNCC3)C1` [Example 31.79], 20 nM.
`CC1(C(=O)N2CCC3(CCOC3)CC2)CN(c2c3c(nc4ccnn24)CCNCC3)C1` [Example 32.4] registered an EC50 of 4270 nM.
Take `CN1CCN(C(=O)C2CN(c3c4c(nc5ccnn35)CCNCC4)C2)CC1` [Example 37.35]: a half-maximal effect (EC50) was put at 4 nM.
Then `O=C(O)C1CN(c2c3c(nc4ccnn24)CCNCC3)C1` [Example 1.14], with 1340 nM; and `CO[C@H]1CCN(C(=O)C2CN(c3c4c(nc5ccnn35)CCN(C)CC4)C2)C1` [Example 36.41], with 337 nM; and `CC(=O)N1CCN(C(=O)C2CN(c3c4c(nc5ccnn35)CCN(C)CC4)C2)CC1` [Example 36.52], with 181 nM.
As for `O=C(NCC1CCCC1)C1CN(c2c3c(nc4ccnn24)CCNCC3)C1` [Example 37.103], the half-maximal effective concentration (EC50) was determined as 68 nM.
For `O=C(C1CN(c2c3c(nc4ccnn24)CCNCC3)C1)N1CCc2ccc(C(F)(F)F)cc21` [Example 31.157], the concentration for a half-maximal effect (EC50) worked out at 34 nM.
Consider `CN1CCC2(CCN(c3c4c(nc5ccnn35)CCNCC4)CC2)C1=O` [Example 1.66], for which the EC50 came out at 1660 nM.
In the case of `O=C(C1CN(c2c3c(nc4ccnn24)CCNCC3)C1)N1CCN(C2CC2)CC1` [Example 37.32], the EC50 was 22 nM.
As to `O=C(NCC1CCCCCC1)C1CN(c2c3c(nc4ccnn24)CCNCC3)C1` [Example 37.68], a half-maximal effect (EC50) was put at 39 nM.
As to `O=C(C1CN(c2c3c(nc4ccnn24)CCNCC3)C1)N1CCc2c(F)cccc2C1` [Example 31.204], the half-maximal effective concentration (EC50) stood at 33 nM.
Take `CC(=O)N1CCN(C(=O)C2CN(c3c4c(nc5ccnn35)CCNCC4)C2)CC1` [Example 37.36]: the concentration giving a half-maximal response (EC50) came out at 10 nM.

For the origin of these results see patent US20120165304A1, “6,7,8,9-Tetrahydro-5H-1,4,7,10a-tetraaza-cyclohept[f]indene derivatives, pharmaceutical compositions containing these compounds, their use and processes for preparing them” (BOEHRINGER INGELHEIM INTERNATIONAL GMBH, priority 2008, published 2012).
